Assay [1] deals with NF-κB. In words: NF-κB nuclear binding activity by EMSA in cardiomyocytes. In kind it is cell-based, rat. To be noted: cardiomyocytes; angiotensin-II 1 μM, phenylephrine 50 μM, IL-33 10 ng/ml. As to the method:
(§1) Electromobility shift assays were performed as described previously (8). Cells were lysed for 10 minutes on ice in a solution containing 10 mM HEPES (pH 7.6), 15 mM KCl, 2 mM MgCl2, 0.1 mM ethylenediamine tetraacetic acid (EDTA), 1 mM dithiothreitol (DTT), 0.5 mM phenylmethylsulphonylfluoride (PMSF), 10 μg/mL leupeptin and 0.2% Nonident P-40. Dishes were gently scraped, and nuclei were collected by centrifugation at 800 g for 30 seconds and then suspended in a solution of 50 mM HEPES, 400 mM KCl, 0.1 mM EDTA, 10% glycerol, 1 mM DTT, 0.5 mM PMSF and 10 μg/mL leupeptin. The mixture was incubated on ice for 30 minutes, and the supernatant was collected after centrifugation for 15 minutes at 400 g. Binding reactions were performed with 5 or 10 μg of nuclear protein in 10 mM Tris, 1 mM DTT, 1 mM EDTA, 5% glycerol, 0.1% Triton X-100, 1 mg poly(dIdC), 5 μg bovine serum albumin (BSA) and approximately 10,000 cpm of −32P-labeled oligonucleotide. The binding reactions for AP-1 activity also contained 5 mM MgCl2. Control reaction mixtures contained a 100-fold excess of unlabeled oligonucleotide and were incubated with nuclear extracts of IL-1β-treated cells. DNA complexes were separated on a 4% nondenaturing polyacrylamide gel in Tris-HCl (6.7 mM), EDTA (1 mM) and ammonium acetate (3.3 mM). The oligonucleotides contained the NF-B binding site (sequence: 5′-AGTTGAGGGGACTTTCCCAGGC-3′ (SEQ ID NO: 15)) and were labeled by standard procedures.
EMSAs were performed as described previously (47). Cells were lysed for 10 minutes on ice in 10 mM HEPES (pH 7.6), 15 mM KCl, 2 mM MgCl2, 0.1 mM EDTA, 1 mM DTT, 0.5 mM PMSF, 10 μg/mL leupeptin, and 0.2% Nonident P-40. Dishes were gently scraped, and nuclei were collected by centrifugation at 800 g for 30 seconds and then suspended in a solution of 50 mM HEPES, 400 mM KCl, 0.1 mM EDTA, 10% glycerol, 1 mM DTT, 0.5 mM PMSF, and 10 μg/mL leupeptin. The mixture was incubated on ice for 30 minutes, and the supernatant was collected after centrifugation for 15 minutes at 400 g. Binding reactions were performed with 5 or 10 μg of nuclear protein in 10 mM Tris, 1 mM DTT, 1 mM EDTA, 5% glycerol, 0.1% Triton X-100, 1 mg poly(dIdC), […] BSA, and 10,000 cpm of [^32P]-labeled oligonucleotide. The specific NF-κB consensus oligonucleotides were 5′-[…]-3′ (SEQ ID NO: 15) and 5′-[…]-3′ (SEQ ID NO: 18) (Promega). Positive and negative control mixtures as well as specific competition mixtures were made as recommended by the manufacturer's instructions, using binding buffer with positive samples, labeled NF-κB oligonucleotides and 10-fold excess of cold NF-κB consensus oligonucleotides for specific competition. DNA complexes were separated on a 6% nondenaturing polyacrylamide gel in Tris-HCl (6.7 mM), EDTA (1 mM), and ammonium acetate (3.3 mM).
A general note: In EMSA bound probe runs differently from free probe, usually more slowly.

The subject of assay [2] is NF-κB. In words: NF-κB nuclear binding activity by EMSA in cardiac fibroblasts. Format: cell-based, rat. To be noted: angiotensin-II 1 μM, phenylephrine 50 μM, IL-33 10 ng/ml. On the procedure: as §1
EMSAs were performed as described previously (47). Cells were lysed for 10 minutes on ice in 10 mM HEPES (pH 7.6), 15 mM KCl, 2 mM MgCl2, 0.1 mM EDTA, 1 mM DTT, 0.5 mM PMSF, 10 μg/mL leupeptin, and 0.2% Nonident P-40. Dishes were gently scraped, and nuclei were collected by centrifugation at 800 g for 30 seconds and then suspended in a solution of 50 mM HEPES, 400 mM KCl, 0.1 mM EDTA, 10% glycerol, 1 mM DTT, 0.5 mM PMSF, and 10 μg/mL leupeptin. The mixture was incubated on ice for 30 minutes, and the supernatant was collected after centrifugation for 15 minutes at 400 g. […]

In a further assay the test system is cardiomyocytes. In words: Oxidative stress assay (DCFDA, ROS generation). In kind it is cell-based, rat. To be noted: DCFDA. On the procedure: An assay to detect oxidative stress was performed as reported previously (48). Cardiomyocytes were incubated with 2,7-dichlorodihydrofluorecein diacetate (DCFDA) for 45 min, washed in phosphate-buffered saline, and fluorescence intensity was measured using a fluorometer (PerkinElmer Life Science) at 595 nm.

Assay [3] has as its system rat neonatal cardiac fibroblasts. The experiment in a line: sST2 and IL-33 secretion and free IL-33 in cardiac fibroblast conditioned media (Western, immunoprecipitation). In kind it is cell-based. On the procedure:
Immunoprecipitation was performed as described previously (45) with some modifications. Briefly, after wash with PBS, protein G-agarose beads were presaturated with far excessive amount of sST2-Fc protein (R&D) at 4° C. overnight, washed 3 times with PBS. 1 ml of conditioned media in the presence and absence of separated preincubation with 20 μg of the sST2-Fc protein was then incubated with presaturated beads for 2 hours at room temperature.
(§2) Western analyses were performed as described previously (45). Membranes were incubated with primary antibodies overnight (anti-p44/42MAPK diluted 1:500; phospho-p44/42MAPK (Thr202/Tyr204) 1:1000; phospho-JNK (Thr183/Tyr185) 1:500; p38MAPK 1:500; phospho-p38MAPK (Thr180/Tyr182) 1:500; phospho-Akt (Ser473) 1:1000 and phospho-IκBα 1:1000, all from Cell Signaling, anti-mouse ST2L, from R&D 1:1000 and anti-IL-33 as described above, 1:500) at 4° C., detected with horseradish peroxidase-conjugated antibodies and enhanced chemiluminescence.

The test system of assay [4] is IκBα. In words: IκBα phosphorylation by Western analysis in cardiomyocytes. Format: cell-based, rat. To be noted: cardiomyocytes. On the procedure:
as §2

The test system of assay [5] is IκBα. The experiment in a line: IκBα phosphorylation by Western analysis in cardiac fibroblasts. Format: cell-based, rat. On the procedure: as §2
Assay [6] concerns NF-κB. The experiment in a line: NF-κB luciferase reporter assay in neonatal rat cardiomyocytes. To be noted: n=3. In kind it is cell-based. As to the method: Neonatal rat cardiomyocytes were transfected using Lipofectamine Plus (Invitrogen) with a luciferase reporter plasmid for NF-κB and with β-galactosidase, as described previously (47). After 48 hours of transfection, cells were then stimulated for an additional 24 hours, lysed and treated with Dual-Light assay system (Applied Biosystems, Foster City, Calif.), and analyzed using a luminometer (PerkinElmer Waltham, Calif.).
In general terms: In a reporter assay the amount or activity of a reporter protein is the signal.

The next assay relates to IL-33. The experiment in a line: IL-33 gene expression by quantitative PCR in cardiomyocytes and cardiac fibroblasts. To be noted: PMA 0.2 μM, angiotensin-II 0.1 μM, TNF-α 10 ng/ml, IL-1β 10 ng/ml. Format: cell-based, rat. On the procedure: mRNA expression was analyzed by quantitative PCR using the QuantiTect SYBR Green reverse transcription-PCR kit (QIAGEN, Valencia, Calif.) and the Light Cycler System (Roche Applied Science, Indianapolis, Ind.) as previously described (5). Total RNA was extracted from cells with TRI reagent, and 0.2 μg of RNA was analyzed. Sequences of PCR primers were as follows (5′ to 3′): […] (SEQ ID NO: 1) and […] (SEQ ID NO: 2) (IL-33); […] (SEQ ID NO: 3) and […] (SEQ ID NO: 4) (ANP); […] (SEQ ID NO: 5) and […] (SEQ ID NO: 6) (BNP); […] (SEQ ID NO: 7) and […] (SEQ ID NO: 8) (procollagen I); […] (SEQ ID NO: 9) and […] (SEQ ID NO: 10) (collagen III).
mRNA expression was analyzed by quantitative PCR using the QuantiTect SYBR Green reverse transcription-PCR kit (QIAGEN) and the Light Cycler System (Roche Applied Science) as previously described (45). Total RNA was extracted from cells with TRI reagent, and 0.2 μg of RNA was analyzed. Sequences of PCR primers were as follows (5′ to 3′): […] (SEQ ID NO: 1) and […] (SEQ ID NO: 2) (rat IL-33); […] (SEQ ID NO: 3) and […] (SEQ ID NO: 4) (rat ANP); […] (SEQ ID NO: 5) and […] (SEQ ID NO: 6) (rat BNP).

Assay [7] relates to rat neonatal cardiomyocytes. The experiment in a line: [3H]-leucine incorporation assay (hypertrophy). In kind it is cell-based. To be noted: for hypertrophic response under angiotensin-II or phenylephrine: agent added without IL-33; for antihypertrophic effect of IL-33: under angiotensin-II or phenylephrine plus IL-33, agent added. As to the method: Leucine incorporation in rat neonatal cardiomyocytes was detected as previously described (7). Cells were pre-incubated with 1.0 μCi/mL [^3H]leucine for 24 hours. The medium was aspirated, and the cells were washed twice with ice-cold PBS and once with 10% trichloroacetic acid (TCA; Sigma) and fixed for 45 minutes at 4° C. with 10% TCA. After washing twice with cold 95% ethanol, radioactivity incorporated into the TCA-precipitable material was determined by liquid scintillation counting after solubilization in 0.15N NaOH.
Leucine incorporation in rat neonatal cardiomyocytes was detected as previously described (46). Cells were treated with 1.0 μCi/ml [^3H]-leucine for 24 hours, washed, fixed with 10% trichloroacetate (Sigma) for 45 minutes at 4° C., and then radioactivity was determined by liquid scintillation counting. An anti-mouse ST2 antibody (R&D) was used as a functional neutralizing antibody (12). A normal rat IgG2a (Sigma) and mouse IL-1Rrp2 (R&D) were used as controls for anti-mouse ST2 antibody (R&D) and mouse soluble ST2 (R&D), respectively.

Setting [8] is: increasing doses of PMA, 24 hrs.

“Also recorded” adds a separate entry of the source.

Regarding `CNC[C@H](O)c1cccc(O)c1` [phenylephrine, reference compound], the “NF-κB activation by agent alone” value in the assay with NF-κB [1] and in the assay with NF-κB [2] was “independently activated NF-κB in both cell types” in each case. For the same molecule, the “ROS generation by agonist alone” value in the assay with cardiomyocytes is listed as “significantly induced ROS generation”.
With “sST2-Fc: sST2-Fc protein (R&D), recombinant ST2-Fc chimera protein”, the “free IL-33 in conditioned media after preincubation” value in [3] (20 μg of sST2-Fc protein) is given as “removed free IL-33”.
“angiotensin-II (DRVYIHPF; Angiotensin-2; UniProt P01019 25-32, looked up) [hypertrophic stimulus, angiotensin receptor agonist, reference compound]”: the “NF-κB activation by agent alone” value with NF-κB [1] and with NF-κB [2] was “independently activated NF-κB in both cell types” throughout. Moreover, the “IκBα phosphorylation by agent alone” value with IκBα [4] and in the assay with IκBα [5] was “induced IκBα phosphorylation in both cell types” each time. In the assay on NF-κB [6] (angiotensin-II alone), the “increase of NF-κB promoter activity” value was 66+/−26%. In addition, in the assay with cardiomyocytes, the “ROS generation by agonist alone” value is “significantly induced ROS generation”. For the same molecule, the “induction of IL-33 gene expression” value with IL-33 was “induced the expression of IL-33 in both cell types”.
`CCCCCCCCCCCCCC(=O)O[C@@H]1[C@@H](C)[C@@]2(O)[C@@H](C=C(CO)C[C@]3(O)C(=O)C(C)=C[C@@H]23)[C@@H]2C(C)(C)[C@]12OC(C)=O` [PMA, phorbol 12-myristate 13-acetate]: in the assay on IL-33, the “induction of IL-33 gene expression” value was “induced the expression of IL-33 in both cell types; also recorded: powerful inducer”. Further, in assay [3] (setting [8]), the “free (unbound) IL-33” value is “unbound IL-33 diminished; also recorded: dose-dependent decrease in free IL-33 level; also recorded: dose-dependently decreased free IL-33”; the “secretion of sST2 and total IL-33” value was “both sST2 and total IL-33 were induced; also recorded: dose-dependent robust induction in both sST2 and IL-33 protein expression; also recorded: dose-dependently increased secretion of both IL-33 (top) and sST2”.
For the molecule IL-1β: cytokine stimulus, 10 ng/ml, the “induction of IL-33 gene expression” value with IL-33 is “neither TNF-α (10 ng/ml) nor IL-1β (10 ng/ml) induced IL-33 gene expression”.
For “sST2: soluble form of ST2; mouse soluble ST2 (R&D); acts as decoy receptor for IL-33”, the “hypertrophic response under angiotensin-II or phenylephrine” value in assay [7] is listed as “further augment the hypertrophic response; also recorded: trend toward increased amino acid uptake”; in assay [7] (listed as soluble ST2), “further enhanced hypertrophy”. In addition, in [7] (agent alone, vs baseline or control protein), the “leucine uptake at baseline” value is given as “not affected”. For the same molecule, the entries for the “antihypertrophic effect of IL-33” value in assay [7], in [7] (listed as Soluble ST2) and in assay [7] (listed as soluble ST2) were “reversed the antihypertrophic effect of IL-33 in a dose-dependent manner”, “dose-dependently reversed the antihypertrophic effect of IL-33” and “abolishes it; also recorded: the effects of IL-33 are abolished”, respectively. The “increase of NF-κB promoter activity” value with NF-κB [6] (angiotensin-II with IL-33 and sST2 co-treatment) is reported as 42+/−5%.
In the case of TNF-α, the “induction of IL-33 gene expression” value with IL-33 is on record as “neither TNF-α (10 ng/ml) nor IL-1β (10 ng/ml) induced IL-33 gene expression”.

Source of the values: patent publication US8147817B2, “IL-33 in the treatment and diagnosis of diseases and disorders” (The Brigham and Women's Hospital, Inc., priority 2006, dated 2012).
